From ChEMBL document CHEMBL1275478, “Enantioselective and nonlinear intestinal absorption of eflornithine in the rat” (Antimicrob Agents Chemother, 2008) come the findings set out here.

Assay type in all cases: ADME, organism-based
Data set [1] has as its system Rattus norvegicus. In words: Mean transit time in Sprague-Dawley rat assessed as L-eflornithine at 750 to 3000 mg/kg, po. Also noted: dose 750-3000 mg/kg, route oral. As to conditions: in vivo.
The subject of data set [2] is Rattus norvegicus. In words: Intercompartmental clearance in Sprague-Dawley rat assessed as L-eflornithine at 1000 mg/kg, iv administered as 3 mins short-term infusion. The arrangement: dose 1000 mg/kg, route intravenous. As to conditions: in vivo, 0.05 h.
The test system of data set [3] is Rattus norvegicus. Description: Intercompartmental clearance in Sprague-Dawley rat assessed as D-eflornithine at 375 mg/kg, iv administered as single infusion. Also noted: dose 375 mg/kg, route intravenous. As to conditions: in vivo.
Data set [4] has as its system Rattus norvegicus. Description: Intercompartmental clearance in Sprague-Dawley rat assessed as L-eflornithine at 375 mg/kg, iv administered as single infusion. Also noted: dose 375 mg/kg, route intravenous. As to conditions: in vivo.
Data set [5] deals with Rattus norvegicus. In words: Mean transit time in Sprague-Dawley rat assessed as D-eflornithine at 750 to 3000 mg/kg, po. Also noted: dose 750-3000 mg/kg, route oral. Particulars: in vivo.
A short description of data set [6]: Oral bioavailability in Sprague-Dawley rat at 750 mg/kg, po. As to conditions: in vivo, pooled result: one value given for 3 cell lines, strains, targets or settings.
The nature of data set [7]: Oral bioavailability in Sprague-Dawley rat at 3000 mg/kg, po. Particulars: in vivo.
Data set [8] concerns Rattus norvegicus. In words: Intercompartmental clearance in Sprague-Dawley rat assessed as D-eflornithine at 1000 mg/kg, iv administered as 3 mins short-term infusion. As to conditions: in vivo, 0.05 h. Also noted: dose 1000 mg/kg, route intravenous.
A short description of data set [9]: Central volume of distribution in Sprague-Dawley rat at 1000 mg/kg, iv administered as 3 mins short-term infusion. As to conditions: in vivo. Also noted: dose 1000 mg/kg, route intravenous.
The nature of data set [10]: Clearance in Sprague-Dawley rat at 375 mg/kg, iv administered as single infusion. Also noted: dose 375 mg/kg, route intravenous. Particulars: in vivo.
Data set [11] is described as follows: Central volume of distribution in Sprague-Dawley rat at 375 mg/kg, iv administered as single infusion. Also noted: dose 375 mg/kg, route intravenous. Particulars: in vivo.
A short description of data set [12]: Clearance in Sprague-Dawley rat at 1000 mg/kg, iv administered as 3 mins short-term infusion. Also noted: dose 1000 mg/kg, route intravenous. Particulars: in vivo.

Turning to `NCCCC(N)(C(=O)O)C(F)F` (racemic) [EFLORNITHINE], the MTT in data set [1] and in data set [5] was 88 min throughout. For the same compound, the CL in data set [2], in data set [3], in [4] and in data set [8] was 1.2 mL/min/kg each time. Besides, the figures for the bioavailability in [6] and in data set [7] were 62.3% and 82.7%, respectively.

`NCCC[C@@](N)(C(=O)O)C(F)F` [D-EFLORNITHINE] had a Vd in data set [9] of 0.401 L/kg. This compound registered a clearance in data set [10] of 12.6 mL/min/kg.

For the compound `NCCC[C@](N)(C(=O)O)C(F)F` [EFLORNITHINE, (S)-], the Vd in data set [9] and in data set [11] was 0.404 L/kg in each case. Besides, the clearance in data set [10] and in [12] was 14.5 mL/min/kg each time. Also, the bioavailability was 41% in data set [6] and 47% in [7].
